Experiments:
[1] = test system: MTAP-null SW1573 cancer cell line; experiment: 7-day viability assay, combination with an exemplar MTAP-null-selective PRMT5 inhibitor, SW1573; type: cell-based; conditions: in combination with an exemplar MTAP-null-selective PRMT5 inhibitor
Description: FIG. 3. Combination of AG-270, a MAT2A inhibitor effect is synergistic according to the HSA model, where the synergy score quantifies the excess of the highest single compound response

[2] = test system: MTAP-null SW1573 cancer cell line; experiment: Combination viability assay (CellTiter-Glo, 7 days), SW1573 MTAP-deleted cells; type: cell-based; conditions: 7-day viability assay, combination partner: exemplar MTAPnull-selective PRMT5 inhibitor
Experimental: A SW1573 MTAP-isogenic cell line pair was generated by either reconstituting MTAP gene expression, or by introducing an empty control vector, in the MTAP-deleted SW1573 parental cell line. The cell lines were maintained in DMEM+10% FBS in a humidified, 5% CO2 tissue culture incubator. All test compounds are maintained as 10 mM DMSO stocks.
On Day 0, MTAP-intact and MTAP-deleted cells are seeded in a 384-well plate, and incubated in a humidified, 5% CO2 tissue culture incubator for 16-24 hours. On Day 1, the test compounds are dispensed to wells at defined concentrations (n=2), and the volume of DMSO is normalized to highest class volume. The compound-treated plates are incubated for 7 days in a humidified, 5% CO2 tissue culture incubator.
On Day 7, the plates are removed from the tissue culture incubator and allowed to equilibrate to room temperature. Relative viability is assessed by addition of CellTiter-Glo reagent, and data are plotted as % of DMSO control for each compound in each cell line, with a 4-parameter fit non-linear regression model (GraphPad Prism). Synergy is determined according to the HSA model by the Combenefit software package (Version 2.021).

[3] = target: T1, PRMT5 (Homo sapiens, UniProt O14744); experiment: PRMT5 biochemical IC50 assay with SAM as cofactor; conditions: PRMT5, SAM as cofactor; read-out: SAM IC50
T1 construct: purchased Viva (custom protein)

[4] = test system: HAP1 MTAP-deleted cell line; experiment: SDMA in-cell western assay, HAP1 MTAP-deleted; type: cell-based; conditions: for IC50: Homo sapiens, HAP1, SDMA in-cell western, HAP1 MTAP-deleted, read-out: HAP 1 MTAP deleted IC50; for MTAP intact/deleted ratio: IC50 ratio HAP1 MTAP-intact / HAP1 MTAP-deleted, SDMA in-cell western
Outline: (§1)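 Readout: in-cell western detection of SDMA. Cells: HAP1 expressing endogenous MTAP and an MTAP-null HAP1 counterpart. Output: IC50.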

[5] = test system: HAP1 MTAP-deleted cell line; experiment: Viability assay, MTAP-deleted cell line; type: cell-based; conditions: Homo sapiens, HAP1, viability, HAP1 MTAP-deleted cell line; read-out: HAP1 MTAP deleted viability
Description: Table 1 additionally indicates IC50 values in a viability assay for the MTAP-deleted cell line (column 10), indicating the effect of treatment with compound on cell survival.

[6] = target: T1, PRMT5; experiment: PRMT5 biochemical IC50 assay with MTA as cofactor; conditions: PRMT5, MTA as cofactor; read-out: MTA IC50
[7] = test system: HAP1 MTAP-intact cell line; experiment: SDMA in-cell western assay, HAP1 MTAP-intact; type: cell-based; conditions: Homo sapiens, HAP1, SDMA in-cell western, HAP1 MTAP-intact; read-out: MTAP HAP1 intact IC50
Outline: as §1

[8] = target: T1, PRMT5; experiment: PRMT5 biochemical IC50 assay with no cofactor; conditions: PRMT5, no cofactor; read-out: No Cofactor/ rel IC50
Description: Table 1 indicates IC50 values (μM) against PRMT5 for exemplary compounds in the presence of SAM as cofactor, with no cofactor, and with MTA as cofactor, respectively (columns 4-6). […] Ki values can be calculated from the IC50 values as described in the Examples section. As detailed in the Examples section, for the assay performed in the presence of SAM, IC50=Ki×1.5 (Ki=IC50/1.5).

T1 sequence (O14744 whole entry): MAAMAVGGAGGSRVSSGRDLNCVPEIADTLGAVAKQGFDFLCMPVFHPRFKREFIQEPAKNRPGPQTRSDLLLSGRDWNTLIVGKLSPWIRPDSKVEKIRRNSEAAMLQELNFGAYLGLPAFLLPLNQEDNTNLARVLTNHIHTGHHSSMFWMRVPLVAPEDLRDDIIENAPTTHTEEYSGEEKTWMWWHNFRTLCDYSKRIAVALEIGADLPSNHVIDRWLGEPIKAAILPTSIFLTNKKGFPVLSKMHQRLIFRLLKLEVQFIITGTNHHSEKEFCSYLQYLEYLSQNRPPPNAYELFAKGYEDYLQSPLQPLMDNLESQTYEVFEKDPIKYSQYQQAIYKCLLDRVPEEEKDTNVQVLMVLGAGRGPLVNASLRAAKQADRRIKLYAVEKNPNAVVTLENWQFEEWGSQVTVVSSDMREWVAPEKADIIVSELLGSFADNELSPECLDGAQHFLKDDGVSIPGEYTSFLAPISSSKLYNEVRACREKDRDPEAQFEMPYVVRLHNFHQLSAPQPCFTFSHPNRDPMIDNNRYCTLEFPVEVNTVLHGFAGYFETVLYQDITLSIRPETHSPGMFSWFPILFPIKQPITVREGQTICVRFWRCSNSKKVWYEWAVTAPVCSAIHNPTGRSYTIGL
T1 sequence (Q9BQA1 whole entry partner): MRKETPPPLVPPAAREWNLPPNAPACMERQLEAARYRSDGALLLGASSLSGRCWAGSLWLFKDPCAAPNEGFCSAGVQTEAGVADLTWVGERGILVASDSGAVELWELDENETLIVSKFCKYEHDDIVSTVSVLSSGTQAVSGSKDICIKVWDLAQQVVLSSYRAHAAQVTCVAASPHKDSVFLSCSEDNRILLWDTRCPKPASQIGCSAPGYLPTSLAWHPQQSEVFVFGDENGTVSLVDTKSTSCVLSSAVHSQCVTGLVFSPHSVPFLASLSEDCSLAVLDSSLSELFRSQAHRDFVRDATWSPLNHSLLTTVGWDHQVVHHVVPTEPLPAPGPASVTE

Row | Structure (SMILES) | Effect of the combination on cellular viability [1] | cellular viability, combination with an exemplar MTAP-null-selective PRMT5 inhibitor [2] | IC50 [3] | IC50 [4] | MTAP intact/deleted ratio [4] | IC50 [5] | IC50 [6] | IC50 [7] | IC50 [8]
1 | C=CC(=O)N1CCN(c2nc(=O)n(-c3c(C)ccnc3C(C)C)c3nc(-c4c(O)cccc4F)c(F)cc23)[C@@H](C)C1 [AMG-510] | enhanced cellular viability defects | enhanced cellular viability defects | – | – | – | – | – | – | –
2 | CCc1cc(NC(=O)C(=O)N2C[C@@H](C)CC[C@@H]2c2ccc(N3CCN(C)CC3)c(C)c2)cnc1N [Compound 1390, N-(6-Amino-5-ethyl-3-pyridyl)-2-[(2R,5S)-5-methyl-2-[3-methyl-4-(4-methylpiperazin-1-yl)phenyl]-1-piperidyl]-2-oxo-acetamide] | – | – | 50 to 500 nM | < 100 nM | A (an IC50 ratio greater than or equal to 10 fold) | < 1000 nM | < 50 nM | 100 to 1000 nM | 50 to 500 nM
3 | CCc1cc(NC(=O)C(=O)N2C[C@@H](C)CC[C@@H]2c2cccc(OCCN3CCCC3)c2)cnc1N [Compound 1391, N-(6-amino-5-ethylpyridin-3-yl)-2-((2R,5)-5-methyl-2-(3-(2-(pyrrolidin-1-yl)ethoxy)phenyl)piperidin-1-yl)-2-oxoacetamide] | – | – | < 50 nM | < 100 nM | A (an IC50 ratio greater than or equal to 10 fold) | < 1000 nM | < 50 nM | 100 to 1000 nM | < 50 nM
4 | CCc1cc(NC(=O)C(=O)N2[C@@H](c3ccc4sc(C5CCN(C)CC5)nc4c3)CCC[C@@H]2C)cnc1N [Compound 1395] | – | – | 50 to 500 nM | < 100 nM | A (an IC50 ratio greater than or equal to 10 fold) | < 1000 nM | < 50 nM | < 100 nM | < 50 nM
5 | CCc1cc(NC(=O)C(=O)N2C[C@@H](C)CC[C@@H]2c2ccc3sc(CC4(N(C)C)COC4)nc3c2)cnc1N [Compound 1399, N-(6-amino-5-ethylpyridin-3-yl)-2-((2R,5S)-2-(2-((3-(dimethylamino)oxetan-3-yl)methyl)benzo[d]thiazol-5-yl)-5-methylpiperidin-1-yl)-2-oxoacetamide] | – | – | 50 to 500 nM | < 100 nM | A (an IC50 ratio greater than or equal to 10 fold) | < 1000 nM | < 50 nM | 100 to 1000 nM | < 50 nM
6 | CCc1cc(NC(=O)C(=O)N2C[C@@H](C)CC[C@@H]2c2ccc(N3CCCC4(CCN(C)CC4)C3)cc2)cnc1N [Compound 1401, N-(6-Amino-5-ethyl-3-pyridyl)-2-[(2R,5S)-5-methyl-2-[4-(9-methyl-2,9-diazaspiro[5.5]undecan-2-yl)phenyl]-1-piperidyl]-2-oxo-acetamide] | – | – | 50 to 500 nM | < 100 nM | A (an IC50 ratio greater than or equal to 10 fold) | < 1000 nM | < 50 nM | 100 to 1000 nM | < 50 nM
7 | CCc1cc(NC(=O)C(=O)N2C[C@@H](C)CC[C@@H]2c2ccc(CCN(C)C)c(Cl)c2)cnc1N [Compound 1402, N-(6-amino-5-ethylpyridin-3-yl)-2-((2R,5S)-2-(3-chloro-4-(2-(dimethylamino)ethyl)phenyl)-5-methylpiperidin-1-yl)-2-oxoacetamide] | – | – | 50 to 500 nM | < 100 nM | A (an IC50 ratio greater than or equal to 10 fold) | < 1000 nM | < 50 nM | 100 to 1000 nM | < 50 nM
8 | CCc1cc(NC(=O)C(=O)N2C[C@@H](C)CC[C@@H]2c2ccc3sc(C45CC(N(C)C)(C4)C5)nc3c2)cnc1N [Compound 1404, N-(6-amino-5-ethylpyridin-3-yl)-2-((2R,5S)-2-(2-(3-(dimethylamino)bicyclo[1.1.1]pentan-1-yl)benzo[d]thiazol-5-yl)-5-methylpiperidin-1-yl)-2-oxoacetamide] | – | – | < 50 nM | < 100 nM | A (an IC50 ratio greater than or equal to 10 fold) | < 1000 nM | < 50 nM | < 100 nM | < 50 nM
9 | O=C(Nc1ccc2[nH]nc(-c3ccncc3)c2c1)[C@@H]1CCN(CC(=O)N2CCN(c3ccc(-c4ncccn4)cc3)CC2)C1 [SCH772984] | enhanced cellular viability defect | enhanced cellular viability defects | – | – | – | – | – | – | –
10 | CC(C)Nc1cc(-c2c[nH]c(C(=O)N[C@H](CO)c3cccc(Cl)c3)c2)c(Cl)cn1 [ulixertinib] | enhanced cellular viability defect | enhanced cellular viability defects | – | – | – | – | – | – | –

From US11999727B2 (Tango Therapeutics, Inc., priority 2020, dated 2024)
